ChEMBL document CHEMBL3233007, “Prenylated coumarins: natural phosphodiesterase-4 inhibitors from Toddalia asiatica” (J Nat Prod, 2014)

Target: 3',5'-cyclic-AMP phosphodiesterase 4D (Homo sapiens, UniProt Q08499)
Experiment: Inhibition of human PDE4D2 catalytic domain (86 to 413aa) expressed in Escherichia coli strain BL21 after 15 mins by liquid scintillation counting in presence of [3H]-cAMP

Sequence of 3',5'-cyclic-AMP phosphodiesterase 4D (Q08499 whole entry, the tested form may be a part): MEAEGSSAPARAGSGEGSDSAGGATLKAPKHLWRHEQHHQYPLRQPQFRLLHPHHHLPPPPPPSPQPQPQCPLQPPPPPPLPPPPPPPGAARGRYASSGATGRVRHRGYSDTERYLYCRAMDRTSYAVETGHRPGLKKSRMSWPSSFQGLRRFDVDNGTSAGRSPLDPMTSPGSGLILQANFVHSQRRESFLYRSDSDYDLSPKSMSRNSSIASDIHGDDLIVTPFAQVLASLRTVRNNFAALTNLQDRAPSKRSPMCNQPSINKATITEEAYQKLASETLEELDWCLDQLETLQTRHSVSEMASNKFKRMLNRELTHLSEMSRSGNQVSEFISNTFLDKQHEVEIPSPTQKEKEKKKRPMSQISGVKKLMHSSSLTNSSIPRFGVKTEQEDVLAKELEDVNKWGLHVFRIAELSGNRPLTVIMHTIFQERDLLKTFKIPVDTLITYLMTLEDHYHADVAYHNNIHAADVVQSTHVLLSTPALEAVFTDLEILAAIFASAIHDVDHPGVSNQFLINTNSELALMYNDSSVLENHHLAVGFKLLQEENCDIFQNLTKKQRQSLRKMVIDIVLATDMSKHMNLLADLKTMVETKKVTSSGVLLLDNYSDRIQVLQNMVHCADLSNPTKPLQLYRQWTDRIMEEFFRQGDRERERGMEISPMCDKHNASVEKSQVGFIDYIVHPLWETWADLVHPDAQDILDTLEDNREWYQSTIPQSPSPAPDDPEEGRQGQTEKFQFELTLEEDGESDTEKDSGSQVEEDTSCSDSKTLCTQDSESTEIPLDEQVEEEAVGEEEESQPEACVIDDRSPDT

Row | Compound | IC50
1 | COc1cc(OC)c2ccc(=O)oc2c1/C=C/[C@H]1C[C@@H](C=C(C)C)c2c(c3ccccc3n(C)c2=O)O1 | 0.14 µM
2 | COc1cc(OC)c2ccc(=O)oc2c1CCC(C)C | 10.2 µM
3 | COc1cc2oc(=O)ccc2c(OC)c1CCC(C)C | 11.5 µM
4 | COC1=CC(=O)c2cc(C)cc(-c3c(OC)cc(OC)c4ccc(=O)oc34)c2C1=O | 5.51 µM
5 | COc1cc2c(c3oc(=O)ccc13)CCC(C)(C)O2 | 2.2 µM
6 | COc1cc2ccc(=O)oc2c2c1OC(C)(C)CC2 | 1.53 µM

Further lines, results first:

Row | IC50 | Compound
7 | 16.7 µM | COc1cc2oc(=O)ccc2c(OC)c1C[C@H](OC(=O)[C@]1(O)C[C@@H](O)[C@@H](O)[C@H](OC(=O)/C=C/c2ccc(O)c(O)c2)C1)C(C)(C)O
8 | 2.38 µM | CC1(C)C=Cc2c(c(O)cc3ccc(=O)oc23)O1
9 | 9.98 µM | COc1cc2oc(=O)ccc2c(OC)c1CC=C(C)C
10 | 7.81 µM | COc1cc(O)c(/C=C/C(=O)O[C@@H](Cc2c(OC)cc3oc(=O)ccc3c2OC)C(C)(C)O)c(OC)c1CC=C(C)C
11 | 1.87 µM | COc1cc2c(c3oc(=O)ccc13)C=CC(C)(C)O2
12 | 6.82 µM | COc1cc(OC)c2ccc(=O)oc2c1CC=C(C)C
